# Results: US7345091B2, “Carotenoid ether analogs or derivatives for the inhibition and amelioration of disease” (Cardax Pharmaceuticals, Inc., priority 2002, dated 2008)
# Tests used:
# [1] = human, in vivo, po, 1.1 mg/kg; cited from earlier work
# [2] = test system: C3H10T1/2 cell culture model; experiment: Inhibition of MCA-induced neoplastic transformation; format: cell-based, mouse; conditions: for percent reduction of MCA-induced neoplastic transformation: 3×10^-6 M in THF
# Protocol: Non-esterified, free astaxanthin 2E is generated in the mammalian gut after oral administration of esterified astaxanthin. Only free astaxanthin is found in mammalian plasma and solid organs. […] Inherent esterase activity of serum albumin, and the action of promiscuous esterases in serum and solid organs rapidly generates non-esterified, free astaxanthin after parenteral administration of the disodium disuccinate astaxanthin derivative (XVI). […] An experiment was performed to assess the ability of non-esterified, free astaxanthin (the in vivo final cleavage product of the disodium salt disuccinate astaxanthin derivative (XVI), tested as the all-trans mixture of stereoisomers 3S,3′S, meso, and 3R,3′R in a 1:2:1 ratio) to inhibit neoplastic transformation in the C3H10T1/2 cell culture model developed in the lab of the late Charles Heidelberger (Reznikoff, 1973).
# This experiment was conducted according to protocols established previously (Bertram, 1991 and Pung, 1988). In brief, the 10T1/2 cells, derived from mouse embryonic fibroblasts, were seeded at a density of 10^3 cells/60 mm dish in Eagle's Basal Media (BME) (Atlanta Biologicals, Atlanta, Ga.), supplemented with 4% fetal calf serum (Atlanta Biologicals, Atlanta, Ga.) and 25 μg/mL gentamicin sulfate (Sigma, St. Louis, Mo.). Cells were treated 24 hours later with 5.0 μg/ml MCA (Sigma, St. Louis, Mo.) in acetone or with 0.5% acetone (final concentration) as a control. Media was changed 24 hours after MCA treatment. Cells were treated with astaxanthin in THF or with retinol acetate in acetone 7 days later, and re-treated every 7 days for 4 weeks. Other dishes were treated with the appropriate solvent controls. After 5 weeks from the start of the experiment, cells were fixed with methanol and stained with 10% Giemsa stain (Sigma, St. Louis, Mo.) and scored for type II and type III foci as per Reznikoff (1973).
# [3] = Text: FIG. 27 and FIG. 28 depict the results of spectral analysis after flash photolysis of the formation of triplet and carotenoid cation radical states for non-esterified, free astaxanthin 2E and the diacid disuccinate astaxanthin derivative XV were obtained. Formation of the carotenoid cation radical is a measure of the potential biophysical behavior of the novel derivative as an antioxidant. If a derivative retains the antioxidant behavior of non-esterified, free astaxanthin, then all previously documented (i.e. literature precedent) therapeutic applications for astaxanthin can be reasonably assumed for the novel derivative, including at least singlet oxygen quenching, lipid peroxidation chain-breaking, and/or direct radical scavenging.
# In this experiment, nitronaftalin (NN) was used as the photosensitizer. After irradiation, the excited sensitizer (NN*) forms a sensitizer triplet (^3NN). When ^3NN encounters a carotenoid, energy and electron transfer reactions with ^3NN take place. The resulting relatively stable ^3car and carotenoid cation radicals (car*^+) are detected by characteristic absorption bands. Non-polar solvents (e.g. hexane) favor the formation of ^3car, and more polar solvents (alcohols, water) favor the formation of the car.^+. The anion radical of the sensitizer (NN.^−) is not typically seen because of a low absorption coefficient.
# The ^3car decays rather quickly. After 15 μs, half of the ^3car has disappeared, and after 50 μs, no ^3car is left.
# The spectrum of asta 2E is nearly identical to that of astaCOOH XV. After 50 μs, the ^3car has disappeared. During this time frame, the car.^+ is stable. Negative and positive peaks in the absorption spectra for astaCOOH XV and asta 2E are superimposable.
# superoxide anion = experiment: Superoxide anion scavenging by EPR (DEPMPO spin trap) in phorbol ester-stimulated isolated neutrophils; format: cell-based, human; conditions: Homo sapiens, Neutrophil, Solvent DMSO, 0.1 mM; read-out: Mean (% inhibition) of superoxide anion signal
# Protocol: In an experiment, neutrophils were isolated on a Percoll gradient from whole blood from a human volunteer. The isolated neutrophils were then re-suspended in phosphate-buffered saline, and maximally stimulated with phorbol ester to induce the respiratory burst and production of superoxide anion. To the solution of activated human neutrophils, the disodium salt disuccinate astaxanthin derivative XVI was added at various concentrations, and the superoxide signal [as measured with electron paramagnetic resonance (EPR) spectroscopy] was subsequently measured. […] The disodium salt disuccinate astaxanthin derivative XVI tested at 100 μM scavenged 28% of the total signal. At 3 mM, almost no superoxide signal remained. […] In addition to reducing the superoxide anion signal important in ischemia-reperfusion injury, it is also likely that myocardial salvage can be achieved with the described carotenoid derivative, as superoxide anion plays a major role in tissue injury and death during prolonged myocardial ischemia. In a third experiment, neutrophils were again isolated on a Percoll gradient from whole blood from a second human volunteer. The isolated neutrophils were then re-suspended in phosphate-buffered saline, and maximally stimulated with phorbol ester to induce the respiratory burst and production of superoxide anion. […] Astaxanthin 2E was dissolved in HPLC grade dimethylsulfoxide (DMSO; Sigma-Aldrich, St. Louis, Mo.). The disodium disuccinate derivatives XVI of astaxanthin 2E were tested separately in […] formulations: statistical mixture of stereoisomers (as for astaxanthin, above, a 1:2:1 mixture of all-E; labeled as “mixture” in all tables and figures); 3S,3'S, and 3R,3'R (optical isomers or enantiomers); and meso (mixture of identical 3S,3'R and 3'S,3R; diastereomers of the enantiomeric pair). […] The disuccinate derivatives were first tested at the appropriate final concentrations in pure aqueous solution (deionized water) from stock solutions of 10 mM. Each of the four disuccinate derivatives were then tested from stock solutions prepared in a 1:2 mixture of ethanol (final concentration of EtOH in stock solution 331⁄3%; final concentration in isolated neutrophil assay 0.3%; HPLC grade ethanol, Sigma-Aldrich, St. Louis, Mo.) at 10 mM. […] Metaphore® Pharmaceuticals, Inc., St. Louis, Mo.) were also performed. Human polymorphonuclear leukocytes (PMNs) were isolated from freshly sampled venous blood of a single volunteer by Percoll density gradient centrifugation, which yielded PMNs with a purity of >95%. Each 10 mL of whole blood was mixed with 0.8 mL of 0.1 M EDTA and 25 mL of saline. The diluted blood was layered over 9 mL of Percoll at a specific density of 1.080 g/mL. After centrifugation at 400×g for 20 min at 20° C., the plasma, mononuclear cell, and Percoll layers were removed. Erythrocytes were lysed by addition of 18 mL of ice-cold water for 30 s, followed by 2 mL of 10× PIPES buffer (25 mM PIPES, 110 mM NaCl, and 5 mM KCl, titrated to pH 7.4 with NaOH). Cells were pelleted at 4° C., the supernatant was decanted, and the procedure was repeated. After the second hypotonic lysis, cells were washed twice with PAG buffer (PIPES buffer containing 0.003% human serum albumin and 0.1% glucose). Afterward, PMNs were counted by light microscopy on a hemocytometer. The final pellet was then suspended in PAG-CM buffer (PAG buffer with 1 mM CaCl2 and 1 mM MgCl2). All EPR measurements were performed using a Bruker ER 300 EPR spectrometer operating at X-band with a TM110 cavity. The microwave frequency was measured with a Model 575 microwave counter (EIP Microwave, Inc., San Jose, Calif.). To measure O^ -2 generation from phorbol-ester (PMA)-stimulated PMNs, EPR spin-trapping studies were performed using DEPMPO (Oxis, Portland, Oreg.) at 10 mM. 1×10^6 PMNs were stimulated with PMA (1 ng/mL) and loaded into capillary tubes for EPR measurements. […]
# [4] = read-out: antioxidant ED50 (protective level); cited from earlier work
# C3H/10T1/2 cells = experiment: Assembly of Cx43 into plaques (immunofluorescent staining); format: cell-based, mouse; conditions: 1×10^-8 M in tetrahydrofuran, 4 days
# Protocol: In this experiment expression and assembly of Cx43 into plaques was assessed by immunofluorescent staining. Procedures were essentially as described in Zhang (1992). Briefly, confluent cultures of C3H/10T1/2 cells were grown on Permanox plastic 4-chamber slides (Nalge Nunc International, Naperville, Ill.) and treated for 4 days with: (1) the disodium salt disuccinate astaxanthin derivative XVI (statistical mixture of stereoisomers) dissolved in a 1:2 EtOH/H2O formulation; (2) the retinoid TTNPB at 1×10^−8 M in tetrahydrofuran as a positive control; or (3) 1:2 EtOH/H2O as a solvent control. Cells were fixed with −20° C. methanol overnight, washed in buffer, blocked in 1% bovine serum albumin (Sigma, St, Louis, Mo.) in PBS, and incubated with the rabbit polyclonal anti-Cx43 antibody (Zymed, San Francisco, Calif.) as in (2) above and detected with Alexa568 conjugated anti-rabbit secondary (Molecular Probes, Eugene, Oreg.). Slides were illuminated with […] light and images were acquired at a wavelength of 600 nm using the Zeiss Axioscope light microscope and a Roper Scientific cooled CCD camera. […] In cultures treated with solvent as control, such immunoreactive plaques were infrequent and were smaller than those detected in cells treated with the statistical mixture of stereoisomers of the disodium salt disuccinate astaxanthin derivative XVI or with TTNPB as positive control. […]
# [5] = test system: connexin 43 protein expression; experiment: Induction of connexin 43 protein expression (Western blot, 96 hours); format: cell-based, mouse; conditions: 10^-8 M, 96-hour time point
# Protocol: In brief, mouse embryonic fibroblast CH3/10T^1/2 cells were treated with the following formulations in a 4 mL cell culture system with media containing 2% calf serum: • 1. TTNPB [p-(E)-2-(5,6,7,8-tetrahydro-5,5,8,8-tetramethyl-2-napthyl) propenyl benzoic acid] 10^−8 M in acetone [positive control for connexin 43 upregulation (4 μL in 4 mL] • 2. Disodium salt disuccinate astaxanthin derivative XVI/H2O at 10^−5 M (40 μl in 4 mL) • 3. Disodium salt disuccinate astaxanthin derivative XVI/H2O at 10^−6 M (4 μl in 4 mL) • 4. Disodium salt disuccinate astaxanthin derivative XVI/H2O at 10^−7 M (1:10 dilution and 4 μl in 4 mL) • 5. Disodium salt disuccinate astaxanthin derivative XVI H2O/ethanol [EtOH] formulation at 10^-5 M (40 μl in 4 mL) • 6. Disodium salt disuccinate astaxanthin derivative XVI H2O/EtOH formulation at 10^−6 M (4 μl in 4 mL) • 7. Sterile H2O control (40 μl in 4 mL) • 8. Sterile H2O/EtOH control (20 μL EtOH, 20 μL H2O in 4 mL) • 9. Media control (4 mL)
# Cells were harvested after 96 hours incubation with test compounds and control solutions. All media solutions were identical in color, however after treatment with the disodium salt disuccinate astaxanthin derivative XVI at both 10^−5 dilutions, the color subjectively changed to an orange-red color. Cells treated with TTNPB appeared striated with light microscopy, evidence of differentiation to myocytes, an expected result in this cell culture system. After harvest and pelleting of cells, tubes containing both 10^−5 disodium salt disuccinate astaxanthin derivative XVI solutions were bright red; both 10^−6 dilution tubes were a pink color. As documented previously for other colored carotenoids, this was subjective evidence for cellular uptake of the test compounds.
# Cells were then lysed, and 50 μg of each protein was electrophoresed on a 10% polyacrylamide gel. The gel was then transferred to a nitrocellulose filter. Total protein was assayed with Coomassie blue staining (FIG. 29; lanes 6, 7, and 9 were smeared secondary to gel transfer, and were not included in the quantitative comparison [FIG. 31)]. […]
stability of the carotenoid cation radical (car.+) [3],Compound,"Cmax, plasma levels [1] [ng/mL]",percent reduction of MCA-induced neoplastic transformation ([2]; 4-week treatment),"percent reduction of MCA-induced neoplastic transformation ([2]; 4-week treatment, listed as Non-esterified, free astaxanthin) [%]","numbers of MCA-induced transformed foci ([2]; 3×10^-6 M, 1×10^-6 M and 3×10^-7 M, 4-week treatment, vs MCA + THF control)","potency as inhibitor of transformation compared with previously tested carotenoids ([2]; comparison with data of Bertram, 1991 (1×10^-5 M))","time after which no 3car (carotenoid triplet) is left ([3]; acetonitrile, sensitizer NN) [μs]",inhibition at 100 µM (superoxide anion) [%],EC50 [4] [µM],assembly of immunoreactive Cx43 into plaques (C3H/10T1/2 cells),induction of connexin 43 expression [5]
stable,"CC1=C(/C=C/C(C)=C/C=C/C(C)=C/C=C/C=C(C)/C=C/C=C(C)/C=C/C2=C(C)C(=O)C(O)CC2(C)C)C(C)(C)CC(O)C1=O (centres unmarked) [Astaxanthin 2E, Astaxanthin]",1300,complete suppression of the transformed phenotype,100,concentration-dependent decrease,far more potent inhibitor of transformation than either β-carotene or canthaxanthin,50,28,0.2,–,–
–,"C/C(=C\c1ccc(C(=O)O)cc1)c1ccc2c(c1)C(C)(C)CCC2(C)C [TTNPB, p-(E)-2-(5,6,7,8-tetrahydro-5,5,8,8-tetramethyl-2-napthyl) propenyl benzoic acid, reference compound]",–,–,–,–,–,–,–,–,exhibited assembly of immunoreactive Cx43 into plaques,effective at inducing connexin 43 expression
